Measurements published in paper PMC7072484 (Biomolecules, 2020).
pIC50: −log10 of the molar value. Where two headings read alike, the source gives them in different places.

Columns and labels:
CYP3A4 = target: T1, CYP3A4 (Homo sapiens, UniProt P08684); experiment: P450-Glo luminescence inhibition assay; type: biochemical
T1 construct: native enzyme in pooled human liver microsomes (200 donors, male and female; Sekisui XenoTech), isoform-selective P450-Glo CYP3A4 kit

CYP2B6 = target: T2, CYP2B6 (Homo sapiens, UniProt P20813); experiment: P450-Glo luminescence inhibition assay; type: biochemical
T2 construct: native enzyme in pooled human liver microsomes (200 donors, male and female; Sekisui XenoTech), isoform-selective P450-Glo CYP2B6 kit
T2 sequence (P20813 1-491): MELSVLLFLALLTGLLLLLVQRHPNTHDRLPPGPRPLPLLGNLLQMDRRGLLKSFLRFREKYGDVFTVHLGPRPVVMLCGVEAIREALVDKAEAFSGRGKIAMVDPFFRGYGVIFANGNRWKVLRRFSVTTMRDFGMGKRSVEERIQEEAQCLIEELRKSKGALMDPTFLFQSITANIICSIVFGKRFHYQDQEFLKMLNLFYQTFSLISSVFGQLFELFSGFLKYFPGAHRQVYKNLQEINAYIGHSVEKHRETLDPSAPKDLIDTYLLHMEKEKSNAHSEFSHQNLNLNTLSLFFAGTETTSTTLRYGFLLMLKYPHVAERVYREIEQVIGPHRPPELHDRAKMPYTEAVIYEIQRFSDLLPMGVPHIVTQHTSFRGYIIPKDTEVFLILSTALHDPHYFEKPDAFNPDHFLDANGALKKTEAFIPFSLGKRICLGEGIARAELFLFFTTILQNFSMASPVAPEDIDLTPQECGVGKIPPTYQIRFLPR

T1 sequence (P08684 2-503): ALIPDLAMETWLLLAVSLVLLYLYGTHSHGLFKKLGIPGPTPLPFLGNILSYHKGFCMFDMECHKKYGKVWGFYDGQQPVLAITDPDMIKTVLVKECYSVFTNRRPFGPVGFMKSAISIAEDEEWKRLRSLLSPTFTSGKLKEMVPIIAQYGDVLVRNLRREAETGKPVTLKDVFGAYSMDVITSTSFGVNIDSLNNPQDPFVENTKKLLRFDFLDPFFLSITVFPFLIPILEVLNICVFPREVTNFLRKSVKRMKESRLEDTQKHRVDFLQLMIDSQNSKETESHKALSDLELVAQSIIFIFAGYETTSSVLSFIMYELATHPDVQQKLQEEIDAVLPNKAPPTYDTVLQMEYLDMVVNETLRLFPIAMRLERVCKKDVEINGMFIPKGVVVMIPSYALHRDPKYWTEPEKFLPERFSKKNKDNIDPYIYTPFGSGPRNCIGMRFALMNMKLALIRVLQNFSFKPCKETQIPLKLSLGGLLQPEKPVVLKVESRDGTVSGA

pIC50 (CYP3A4; read-out: CYP3A4 IC50) | pIC50 (CYP2B6) | pIC50 (CYP3A4; read-out: CYP2B6 IC50) | SMILES
4.91 | 5.03 | – | C=C1C(=O)O[C@@]23[C@H]1CC[C@@H](C)[C@@H]2CC[C@@]1(C)O[C@@H]31 [Arteannuin B]
< 3.22 | 3.85 | – | CC1(C)[C@H]2CC[C@]1(C)C(=O)C2 [Camphor (-)]
4.66 | 4.13 | – | COc1cc(-c2oc3cc(OC)c(OC)c(O)c3c(=O)c2OC)ccc1O [Chrysosplenetin]
3.62 | 3.91 | – | C=C(C(=O)O)[C@@H]1CC[C@@H](C)[C@@H]2CCC(C)=C[C@@H]21 [Artemisinic Acid]
< 3.22 | 3.96 | – | C[C@@H]1CC[C@H]2[C@@H](C)C(=O)O[C@@H]3O[C@@]4(C)CC[C@@H]1[C@]32O4 [Deoxyartemisinin]
– | < 3.22 | < 3.22 | O=C(/C=C/c1ccc(O)c(O)c1)O[C@@H]1C[C@](O)(C(=O)O)C[C@@H](O)[C@H]1O [Chlorogenic Acid]
– | < 3.22 | – | COc1cc2ccc(=O)oc2cc1O [Scopoletin]
< 3.22 | 3.92 | – | CC1(C)[C@@H]2CC[C@@]1(C)C(=O)C2 [Camphor (+)]
4.47 | < 3.22 | – | O=c1c(O)c(-c2ccc(O)cc2)oc2cc(O)cc(O)c12 [Kaempferol]
5.34 | 4.70 | – | O=c1c(O)c(-c2ccc(O)c(O)c2)oc2cc(O)cc(O)c12 [Quercetin]
4.64 | 4.28 | – | COc1cc2oc(-c3ccc(O)c(O)c3)c(OC)c(=O)c2c(O)c1OC [Chrysosplenol-D]
